{"source": "paper PMC6154319", "about": "“Intestinal Transport Characteristics and Metabolism of C-Glucosyl Dihydrochalcone, Aspalathin” (Molecules : A Journal of Synthetic Chemistry and Natural …, 2017)", "key": {"[1]": {"experiment": "Lipophilicity, LogD7.4 (n-octanol / phosphate buffer shake flask)", "assay_type": "physicochemical", "details": "phosphate buffer pH 7.4 / n-octanol", "experimental": "For determination of the lipophilicity of aspalathin, a 10 mM stock solution prepared in DMSO was used to spike (100 µM) a 1:1 mixture of phosphate buffer (pH 7.4) and n-octanol. The solutions were shaken vigorously (1500 rpm) on an orbital shaker for 4 h at room temperature. Thereafter, the samples were centrifuged (3500 rpm, 2700× g) in order to fully separate the two immiscible fluids. The samples analysed using HPLC-DAD (Agilent 1200 Rapid Resolution HPLC) and the partition coefficient, LogD7.4 calculated."}, "[2]": {"system": "Caco-2 cells", "experiment": "Cytotoxicity of aspalathin on Caco-2 cells (Vialight plus kit)", "assay_type": "cell-based, human", "details": "HBSS buffer pH 6.0, apical side; 2 h exposure", "text": "Supplementary material for:\nIntestinal Transport Characteristics and Metabolism of C-Glucosyl Dihydrochalcone, Aspalathin\nSandra Bowles 1,*, Elizabeth Joubert 2,3, Dalene de Beer 2,3, Johan Louw 1,4, Christel Brunschwig 5,6,7, Mathew Njoroge 5,6,7, Nina Lawrence 6, Lubbe Wiesner 7, Kelly Chibale 5,6,8,9, and Christo […]\n1 Biomedical Research and Innovation Platform, South African Medical Research Council, Tygerberg, Cape Town, 7130, South Africa; johan.louw@mrc.ac.za (J.L.); christo.muller@mrc.ac.za (C.M.) 2 Plant Bioactives Group, Post-Harvest and Wine Technology Division, Agricultural Research Council, Infruitec-Nietvoorbij, Stellenbosch 7600, South Africa; JoubertL@arc.agric.za (E.J.); DBeerD@arc.agric.za […]\n3 Department of Food Science, Stellenbosch University, Stellenbosch 7600, South Africa 4 Department of Biochemistry and Microbiology, University of Zululand, Kwa-Dlangezwa 3886, South […]\nCaco-2 cells was assessed by the VialightTM plus kit. Caco-2 cells were seeded at a density of 4 x 10^4 cells/cm2 into white clear bottomed 96-well plates and cytotoxicity was assessed according to the manufacturer’s recommendation after 12–13 days. […]"}, "[3]": {"experiment": "Extended Clearance Classification System (ECCS) classification", "details": "weak acid, molecular weight higher than 400 g/mol"}}}
{"smiles": "O=C(CCc1ccc(O)c(O)c1)c1c(O)cc(O)c([C@@H]2O[C@H](CO)[C@@H](O)[C@H](O)[C@H]2O)c1O", "note": "[Aspalathin]", "values": [{"measurement": "Log D at pH 7.4", "setting": "[1]", "result": 0.13}, {"measurement": "maximum concentration not cytotoxic to Caco-2 cells (>80% viability)", "setting": "[2]", "result": 150, "unit": "µM"}, {"measurement": "ECCS class", "setting": "[3]", "result": 3, "unit": "B"}]}
